Measurements published in PubChem BioAssay AID977621 (Broad Institute, 2014).
Records with an inconclusive call do not appear. Activity calls are given as the source filed them.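 How the source made its calls: active means Wild-type ribosome reporter drop at least double the humanized mutant ribosome reporter drop, growth loss under a set limit; inconclusive means no clear call, values can overlap the other calls; inactive means the rest.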

Test system: E. coli wild-type GFP strain growth, fluorescence, 24 h
Assay: growth inhibition of wild-type GFP E. coli, dose response, H69 mutant RFP, cherry-pick (AID 977621);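 further: wild-type GFP and H69 mutant RFP strains grown together 50/50 in each well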
[1] = E. coli mixed culture, 24 h, measured here: total growth OD600, test 2

| Structure (SMILES) | AC50 | AC50 [1] [µM] | AC50 (E. coli mixed culture, 24 h, measured here: total growth OD600, test 1) [µM] |
| --- | --- | --- | --- |
| CCCN(CC1CC1)C(=O)CSc1ncnc2sccc12 | > 100 µM (inactive) |  |  |
| COc1ccc(-c2cn(-c3ccc(Cl)cc3)c3[n+]2CCCCC3)cc1 | > 100 µM (inactive) |  |  |
| C=CCn1c(-c2cc3cccc(OC)c3o2)n[nH]c1=S | > 100 µM (inactive) |  |  |
| Fc1ccc(-n2cc(CNCCc3cccnc3)c(-c3ccccc3Cl)n2)cc1 | > 100 µM (inactive) | 27.8 |  |
| COc1cc(NC(=O)CSCc2ccc(Cl)cc2Cl)c(C(=O)O)cc1OC | > 100 µM (inactive) | > 100 |  |
| COc1ccccc1Cn1c(=S)[nH]c2ccccc2c1=O | > 100 µM (inactive) |  |  |
| O=C(C[n+]1ccn(-c2ccccc2)c1)c1ccc([N+](=O)[O-])cc1 | > 100 µM (inactive) |  |  |
| CC(C)=C(c1ccc(Cl)cc1)c1c(N)ncnc1N | > 100 µM (inactive) |  |  |
| COc1cc(-c2cc3nc(NCCc4ccncc4)ccn3n2)cc(OC)c1OC | > 100 µM (inactive) |  |  |
| COC(=O)c1cc2ccccc2n1S(=O)(=O)c1ccccc1 |  | > 100 |  |
| CCOC(=O)C(CC)Sc1cc(C)nc2ccc(OC)cc12 (stereo not given) |  | > 100 |  |
| CCCc1nc2cc(C)c(Br)c(C)n2c1CC1CCCCC1 | > 100 µM (inactive) | 48.9 |  |
| COc1ccc(CC(=O)Oc2ccc(C)cc2C)cc1 |  | > 100 |  |
| CSc1ccccc1NC(=O)c1ccccc1N(Cc1ccccc1)S(C)(=O)=O |  | > 100 |  |
| O=C(C[C@@H]1CC[C@@H]2[C@H](COC[C@H](O)CN2C(=O)Nc2ccc(Cl)cc2)O1)N1CCCCC1 | > 100 µM (inactive) | 46 |  |
| CCn1nc(Cc2cccc3ccccc23)c(C#N)c1N | > 100 µM (inactive) |  |  |
| Cc1cc2nc(-c3ccc4c(c3)CCC4)ccn2n1 | > 100 µM (inactive) | > 100 |  |
| COc1ccc(CC(=O)NC(C)c2ccc3ccccc3c2)cc1 (stereo not given) | > 100 µM (inactive) |  |  |
| COc1ccc(NC(=O)c2sccc2-n2cccc2)cc1 | > 100 µM (inactive) |  |  |
| O=C(NCc1ccc(-c2nc3ccccc3s2)cc1)c1ccco1 | > 100 µM (inactive) |  |  |
| COc1cccc(-c2ccc(SCc3ccccn3)nn2)c1 | > 100 µM (inactive) | 48.2 |  |
| Cc1ccc(-c2nc(CN3CCCCC3c3cccc(F)c3)c(C)o2)o1 (stereo not given) |  | > 100 |  |
| O=C1N[C@@H](Cc2ccccc2)COC(=O)[C@H](Cc2ccc(F)cc2)C/C=C\C[C@H]1CC(=O)N(CCO)Cc1ccccc1 | > 100 µM (inactive) |  |  |

| Structure (SMILES) | AC50 | AC50 [1] [µM] | AC50 (E. coli mixed culture, 24 h, measured here: total growth OD600, test 1) [µM] |
| --- | --- | --- | --- |
| Cc1nc2ccc(Br)cc2c(=O)n1Cc1cccs1 | > 100 µM (inactive) | 50.2 |  |
| Cc1cnc(NC(=O)Cc2c[nH]c3ccccc23)s1 | > 100 µM (inactive) |  |  |
| O=C1Nc2ccc(F)cc2C12Nc1ccccc1-c1nnc(SCc3ccccc3)nc1O2 (stereo not given) | > 100 µM (inactive) |  |  |
| COc1cccc(C(=O)N2C[C@@H]3[C@H](c4ccccc42)[C@H](CO)N3Cc2ccccc2Cl)c1 | > 100 µM (inactive) | 48.8 |  |
| Cc1onc(-c2ccccc2)c1-c1nnc(-c2ccccc2C(F)(F)F)o1 | > 100 µM (inactive) |  |  |
| O=C(c1cc(COc2c(F)cccc2F)on1)N1C[C@H]2CC[C@H]1C2 | > 100 µM (inactive) |  |  |
| O=C(Nc1cccnc1)c1ccc([N+](=O)[O-])o1 | > 100 µM (inactive) |  |  |
| COCCNc1cc(-c2ccccc2)nc2cc(-c3cccc(F)c3)nn12 | > 100 µM (inactive) |  |  |
| O=C(COC(=O)c1cccc(S(=O)(=O)N2CCCCC2)c1)NCc1cccc(Cl)c1 | > 100 µM (inactive) |  |  |
| CCOc1ccc2nc(NC(=O)CSc3nc(SC)ns3)sc2c1 |  | > 100 |  |
| CCNC(=O)C1(C)CCCN(Cc2cccc3ccccc23)C1 (stereo not given) | > 100 µM (inactive) | > 100 |  |
| COc1cc(-c2ccc(N3C(c4ccsc4)=Cc4ccc(F)cc4C3c3c[nH]c4ccc(C#N)cc34)cc2)cc(OC)c1OC (stereo not given) |  | > 100 |  |
| CC(=O)Nc1cccc(Nc2nc(-c3ccccc3)nc3ccccc23)c1 | > 100 µM (inactive) | 5.27 |  |
| CCOc1ccc(S(=O)(=O)Nc2ccc(S(=O)(=O)N3CCCC3)cc2)cc1 | > 100 µM (inactive) |  |  |
| O=C(c1ccc(N2CCCCC2)c([N+](=O)[O-])c1)N1CCN(c2ccccn2)CC1 | > 100 µM (inactive) | > 100 |  |
| Cc1nc(-c2ccc([N+](=O)[O-])cc2)c(-c2ccccc2)o1 | > 100 µM (inactive) |  |  |
| O=C(NCCc1ccc(Cl)cc1)c1ccc2nc[nH]c2c1 | > 100 µM (inactive) |  |  |
| Cc1cc(C)c(OCCNC(=O)c2ccccc2Sc2ccccc2C#N)c(C)c1 | > 100 µM (inactive) |  | 5.7 |
| CC1=Nc2cc(C(=O)NCC3CCCO3)ccc2Sc2ccc(Br)cc21 (stereo not given) | > 100 µM (inactive) |  |  |
| CN(Cc1c(F)cccc1Cl)C(=O)c1ccc(NS(=O)(=O)c2ccc3[nH]c(=O)[nH]c3c2)cc1 | > 100 µM (inactive) |  |  |
| C[C@@H](NC(=O)C[C@@H]1CC[C@@H]2[C@H](COC[C@H](O)CN2C(=O)Nc2cccc(F)c2)O1)c1ccccc1 | > 100 µM (inactive) |  |  |
| COc1ccc(NS(=O)(=O)c2ccc(NC(=O)c3ccccc3Br)cc2)nn1 | > 100 µM (inactive) |  |  |
| Cc1cccc(OCc2nnc(SCC(=O)Nc3ncc(C)s3)o2)c1 | > 100 µM (inactive) | > 100 |  |

| Structure (SMILES) | AC50 | AC50 [1] [µM] | AC50 (E. coli mixed culture, 24 h, measured here: total growth OD600, test 1) [µM] |
| --- | --- | --- | --- |
| COc1ccccc1-c1ccc(SCc2cccc(F)c2)nn1 | > 100 µM (inactive) | 20.3 |  |
| O=C1c2cccc3cccc(c23)C(=O)N1c1ccccc1Cl | > 100 µM (inactive) |  |  |
| O=C(COc1cccc2c1CCN(Cc1ccccc1F)C2=O)N1CCCCC1 | > 100 µM (inactive) |  |  |
| COc1ccccc1NC(=O)Cn1cc(C(=O)c2ccco2)c2ccccc21 | > 100 µM (inactive) | 31.3 |  |
| Cc1cc(C(=O)c2ccc3ccccc3c2)c(C)o1 | > 100 µM (inactive) |  |  |
| CN(CCOc1ccccc1)S(=O)(=O)c1ccccc1C#N |  | > 100 |  |
| O=C(NCc1cccnc1)c1ccc(COc2ccccc2Br)o1 | > 100 µM (inactive) | 46.2 |  |
| Cc1nc(N2CCCCC2)sc1C(=O)c1ccc(SCCO)c([N+](=O)[O-])c1 | > 100 µM (inactive) | 34.5 |  |
| COc1ccccc1N(C)S(=O)(=O)c1ccc(C(=O)NC(C)c2ccccc2)cc1 (stereo not given) | > 100 µM (inactive) |  |  |
| Cc1ccc(S(=O)(=O)N2CCCCC2C(=O)N2CCN(c3ccccc3F)CC2)cc1 (stereo not given) |  | > 100 |  |
| COc1ccc(C)c2sc(N(CCN(C)C)C(=O)c3ccc(S(=O)(=O)N(C)c4ccccc4)cc3)nc12 | > 100 µM (inactive) |  |  |
| O=C1OCCC1Sc1nc2ccccc2c(=O)n1Cc1ccccc1 (stereo not given) | > 100 µM (inactive) |  |  |
| Cc1ccc(-c2nc3ccc(NS(=O)(=O)c4ccccc4)cc3[nH]2)o1 | > 100 µM (inactive) |  |  |
| CCC(=O)Nc1nc2ccc(NC(=O)c3cc(OC)c(OC)c(OC)c3)cc2s1 | > 100 µM (inactive) |  |  |
| Fc1cccc(CCN2C(=S)NC[C@@H]2CC2CCCCC2)c1 | > 100 µM (inactive) | 6.09 |  |
| CCOCCCNC(=O)C(NC(=O)c1ccccc1O)c1ccc(C)cc1 (stereo not given) |  | > 100 |  |
| Cc1ccc(C2(c3noc(CN(C)Cc4cccnc4)n3)CCCC2)cc1 | > 100 µM (inactive) |  |  |
| O=C(c1cc(COc2ccc(F)cc2F)on1)N1CCCC(c2ccccc2)C1 (stereo not given) | > 100 µM (inactive) | 14.5 |  |
| Cc1noc(C)c1NC(=O)Nc1ccc2c(c1)C(=O)N([C@H](C)CO)C[C@H](C)[C@H](CN(C)C(=O)Nc1ccc3c(c1)OCO3)OCCCC[C@H](C)O2 |  | > 100 |  |
| Cc1ccc(S(=O)(=O)NCc2c(-c3ccccc3)noc2C)cc1 |  | > 100 |  |
| C[C@@H]1CCCCO[C@@H](CN(C)C(=O)c2ccccc2)[C@H](C)CN([C@@H](C)CO)C(=O)c2cc(NC(=O)c3ccccc3)ccc2O1 | > 100 µM (inactive) |  |  |
| COc1ccc(-c2csc(NC(=O)c3ccoc3C)n2)cc1 | > 100 µM (inactive) | 48.8 |  |
| Cc1cc(Br)ccc1SCC(=O)OCC(=O)NCc1ccco1 | > 100 µM (inactive) |  |  |

| Structure (SMILES) | AC50 | AC50 [1] [µM] | AC50 (E. coli mixed culture, 24 h, measured here: total growth OD600, test 1) [µM] |
| --- | --- | --- | --- |
| Cc1ccc(-c2c[n+](CC(=O)Nc3ccccc3)c3n2CCC3)cc1 |  | > 100 |  |
| O=C(O)c1ccc(COc2ccc3ccccc3c2)o1 | > 100 µM (inactive) | > 100 |  |
| CC(C)(C)c1ccc(-c2noc(CCC(=O)NCc3ccco3)n2)cc1 |  | > 100 |  |
| Cc1ccc(Nc2cc(C(=O)NCCCN3CCOCC3)c3ccccc3n2)cc1C | > 100 µM (inactive) |  |  |
| COc1cccc(CN(C)Cc2nc(Cc3ccccc3Cl)no2)c1 |  | 51.7 |  |
| CC(C)Oc1ccc(C(=O)Nc2cccc3cccnc23)cc1 |  | > 100 |  |
| O=C1c2ccccc2NC(c2cccc(F)c2)N1Cc1ccco1 (stereo not given) |  | 9.09 |  |
| Cc1cc(C)c(S(=O)(=O)NCCOc2ccccc2)c(C)c1-n1cnnn1 | > 100 µM (inactive) |  |  |
| COc1ccc(OC)c(NC(=O)COC(=O)C2CCN(C(=O)c3ccc(Cl)cc3)CC2)c1 |  | > 100 |  |
| CCOc1ccc(OCc2cccc(C(=O)O)c2)cc1 | > 100 µM (inactive) |  |  |
| CC(C)Cc1nnc(NS(=O)(=O)c2ccccc2)s1 | > 100 µM (inactive) |  |  |
| Cc1cc(C)c(NC(=O)C(C)c2cccc(C(=O)c3ccccc3)c2)c(C)c1 (stereo not given) |  | 47.2 |  |
| CO[C@@H]1CN(C)C(=O)c2ccc(NC(=O)c3nc4ccccc4s3)cc2OC[C@@H](C)N(Cc2ccncc2)C[C@@H]1C | 52 µM (inactive) |  |  |
| COc1ccccc1CC(=O)NCCc1c[nH]c2ccccc12 | > 100 µM (inactive) |  |  |
| COc1cccc(C(=O)NC(C)c2ccc(Br)cc2)c1 (stereo not given) |  | > 100 |  |
| O=S(=O)(Cc1ccccc1)N1CCCCN2[C@@H](CO)[C@H](c3ccc(C#Cc4ccccc4)cc3)[C@@H]2C1 | > 100 µM (inactive) |  |  |
| CCCCNC(=O)c1onc(CSc2cc(C)cc(C)c2)c1C(=O)O |  | 34.2 |  |
| CCOc1ccccc1N(CC(=O)Nc1ccccc1F)S(=O)(=O)c1ccccc1 | > 100 µM (inactive) | 15.6 |  |
| Cc1noc(C)c1S(=O)(=O)N(Cc1ccccc1)C(C)C |  | > 100 |  |
| CSc1ccccc1OCc1cc(C(=O)N(C)Cc2nonc2C)no1 |  | > 100 |  |
| COCC#Cc1ccc2c(c1)O[C@@H](CN(C)S(=O)(=O)c1cccc(F)c1)[C@@H](C)CN([C@H](C)CO)S2(=O)=O |  | 51.3 |  |
| CCOC(=O)c1sc2nc(NC(=O)C(C)(C)C)sc2c1C | > 100 µM (inactive) | 38.9 |  |
| Cc1nc(SCC(=O)Nc2ccc3c(c2)OCCO3)nc(C)c1C |  | 43.7 |  |
